Source: patent publication US20240208992A1, “MACROCYCLES AS CFTR MODULATORS” (Idorsia Pharmaceuticals Ltd, priority 2021, published 2024)

Biological target: human F508del-CFTR (Homo sapiens, UniProt P13569, DEL508-508)
Assay: F508del-CFTR cell surface expression (corrector activity), DiscoveRx ß-galactosidase complementation chemiluminescence assay in recombinant U2OS cell line;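 note: U2OS cells co-expressing ProLink-tagged F508del-CFTR and a membrane-anchored enzyme acceptor, where more surface CFTR restores β-galactosidase activity measured by chemiluminescence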
Details: for EC50: EC50, F508del-CFTR cell surface expression
[1] = U2OS cells, 16h compound incubation, geomean of several measurements
[2] = U2OS, in relation to the Emax of the corrector lumacaftor (=100%), U2OS cells, 16h compound incubation, arithmetic mean
[3] = U2OS cells, 16h compound incubation, geomean values
[4] = U2OS, in relation to Emax of corrector lumacaftor (=100%), arithmetic mean values
[5] = U2OS cell line, 16h compound incubation, geomean values
[6] = U2OS, in relation to the Emax of the corrector lumacaftor (=100%), U2OS cell line, 16h compound incubation, arithmetic mean values

Sequence of human F508del-CFTR (P13569 with tags, fused parts or gaps DEL508-508): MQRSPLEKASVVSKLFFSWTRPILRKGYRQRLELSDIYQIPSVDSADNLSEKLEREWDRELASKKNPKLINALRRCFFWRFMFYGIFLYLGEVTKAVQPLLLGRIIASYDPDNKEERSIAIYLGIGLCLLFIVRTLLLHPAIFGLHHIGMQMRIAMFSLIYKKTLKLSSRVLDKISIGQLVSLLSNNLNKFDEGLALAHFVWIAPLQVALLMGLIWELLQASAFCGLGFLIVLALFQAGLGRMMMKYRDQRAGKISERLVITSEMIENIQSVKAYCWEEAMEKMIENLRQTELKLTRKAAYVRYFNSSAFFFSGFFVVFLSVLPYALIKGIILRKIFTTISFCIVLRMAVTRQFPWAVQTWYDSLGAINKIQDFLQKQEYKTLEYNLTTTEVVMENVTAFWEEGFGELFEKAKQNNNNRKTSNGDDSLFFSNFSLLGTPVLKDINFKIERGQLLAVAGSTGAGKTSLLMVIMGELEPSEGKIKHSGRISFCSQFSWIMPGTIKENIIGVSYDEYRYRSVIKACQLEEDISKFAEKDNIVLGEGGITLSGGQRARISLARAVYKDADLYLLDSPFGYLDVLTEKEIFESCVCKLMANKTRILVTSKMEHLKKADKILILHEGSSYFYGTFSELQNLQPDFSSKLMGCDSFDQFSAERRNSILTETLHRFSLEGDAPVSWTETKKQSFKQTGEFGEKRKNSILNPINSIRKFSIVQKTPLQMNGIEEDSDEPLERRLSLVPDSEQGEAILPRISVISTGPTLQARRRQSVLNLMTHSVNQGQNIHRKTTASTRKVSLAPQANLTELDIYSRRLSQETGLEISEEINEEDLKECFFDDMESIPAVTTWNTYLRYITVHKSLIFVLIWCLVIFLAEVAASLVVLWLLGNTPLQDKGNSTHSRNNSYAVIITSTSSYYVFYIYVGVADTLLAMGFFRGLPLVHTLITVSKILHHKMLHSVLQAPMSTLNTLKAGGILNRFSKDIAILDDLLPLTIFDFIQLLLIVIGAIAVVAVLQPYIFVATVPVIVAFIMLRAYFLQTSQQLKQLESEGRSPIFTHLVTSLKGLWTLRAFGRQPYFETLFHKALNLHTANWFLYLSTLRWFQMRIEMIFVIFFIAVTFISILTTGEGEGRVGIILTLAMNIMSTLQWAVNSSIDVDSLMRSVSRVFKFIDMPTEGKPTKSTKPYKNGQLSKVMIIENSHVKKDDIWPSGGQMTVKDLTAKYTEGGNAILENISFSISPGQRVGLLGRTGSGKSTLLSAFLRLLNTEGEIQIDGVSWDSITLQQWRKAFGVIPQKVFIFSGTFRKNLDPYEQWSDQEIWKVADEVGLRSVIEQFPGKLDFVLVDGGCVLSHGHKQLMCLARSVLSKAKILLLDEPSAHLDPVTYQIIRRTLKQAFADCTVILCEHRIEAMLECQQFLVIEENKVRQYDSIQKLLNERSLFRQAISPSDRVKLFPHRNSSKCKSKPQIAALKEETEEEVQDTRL

SMILES | EC50 [3] [nM] | Emax [4] [%] | also measured
COc1cc(CCNC(=O)[C@@H]2CC(=O)N(C)[C@@H](CC(C)C)C(=O)N(C)[C@H](CN3CCC(F)(F)C3)C(=O)N[C@H](Cc3ccccc3)COc3cnc4ccc(F)cc4c3C(=O)N2)on1 [Example 827, (3S,7S,10R,13R)-13-benzyl-10-((3,3-difluoropyrrolidin-1-yl)methyl)-20-fluoro-7-isobutyl-N-(2-(3-methoxyisoxazol-5-yl)ethyl)-6,9-dimethyl-1,5,8,11-tetraoxo-1,2,3,4,5,6,7,8,9,10,11,12,13,14-tetradecahydro-[1]oxa[4,7,10,14]tetraazacycloheptadecino[17,16-c]quinoline-3-carboxamide] | – | – | EC50 [1]: 54 nM; Emax [2]: 379%
Cc1nc2ccc3c(c2o1)C(=O)N[C@H](C(=O)NCCc1ccc2c(c1)OCCO2)CC(=O)N(C)[C@@H](CC(C)C)C(=O)N1CCN(C2CC2)C[C@@H]1C(=O)N[C@H](Cc1ccccc1)CO3 [Example 421, (8S,12S,18aR,21R)-21-benzyl-17-cyclopropyl-N-(2-(2,3-dihydrobenzo[b][1,4]dioxin-6-yl)ethyl)-12-isobutyl-4,11-dimethyl-6,10,13,19-tetraoxo-6,7,8,9,10,11,12,13,16,17,18,18a,19,20,21,22-hexadecahydro-15H-oxazolo[4′,5′:5,6]benzo[1,2-p]pyrazino[2,1-f][1]oxa[4,7,10,14]tetraazacycloheptadecine-8-carboxamide] | 391 | 320 | –
CCOc1cccc2c1C(=O)N[C@H](C(=O)NCCc1cccc(OC)c1)CC(=O)N(C)[C@@H](CC(C)C)C(=O)N1CCCC[C@@H]1C(=O)N[C@H](Cc1ccccc1)CO2 [Example 280, (7S,11S,20R,22aR)-20-benzyl-14-ethoxy-7-isobutyl-N-(3-methoxyphenethyl)-8-methyl-6,9,13,22-tetraoxo-1,3,4,6,7,8,9,10,11,12,13,19,20,21,22,22a-hexadecahydro-2H-benzo[p]pyrido[2,1-f][1]oxa[4,7,10,14]tetraazacycloheptadecine-11-carboxamide] | – | – | EC50 [5]: 297 nM; Emax [6]: 188%
Cc1cc2c3c(ccc2cn1)OC[C@@H](Cc1ccccc1)NC(=O)C1(CC(F)(F)C1)N(C)C(=O)[C@H](CC(C)C)N(C)C(=O)C[C@@H](C(=O)NCCn1nnc(C2CC2)n1)NC3=O [Example 955, (3′S,7′S,13′R)-13′-benzyl-N-(2-(5-cyclopropyl-2H-tetrazol-2-yl)ethyl)-3,3-difluoro-7′-isobutyl-6′,9′,20′-trimethyl-1′,5′,8′,11′-tetraoxo-2′,3′,4′,5′,6′,7′,8′,9′,11′,12′,13′,14′-dodecahydro-1′H-spiro[cyclobutane-1,10′-[1]oxa[4,7,10,14]tetraazacycloheptadecino[16,17-f]isoquinoline]-3′-carboxamide] | – | – | EC50 [1]: 381 nM; Emax [2]: 394%
CC(C)C[C@H]1C(=O)N2CCCC[C@@H]2C(=O)N[C@H](Cc2ccccc2)COc2cnc3ccccc3c2C(=O)N[C@H](C(=O)NCCc2cccc(-n3nccn3)c2)CC(=O)N1C [Example 461, (9S,13S,19aR,22R)-N-(3-(2H-1,2,3-triazol-2-yl)phenethyl)-22-benzyl-13-isobutyl-12-methyl-7,11,14,20-tetraoxo-7,8,9,10,11,12,13,14,17,18,19,19a,20,21,22,23-hexadecahydro-16H-pyrido[2′,1′:6,7][1]oxa[4,7,10,14]tetraazacycloheptadecino[17,16-c]quinoline-9-carboxamide] | 444 | 262 | –
COc1cccc(CCNC(=O)[C@@H]2CC(=O)N(C)[C@@H](CC3CCCC3)C(=O)N(C[C@@H]3CCCCO3)CC(=O)N[C@H](Cc3ccccc3)COc3ccc4ccccc4c3C(=O)N2)c1 (racemic) [Example 295, (3RS,7S,13R)-13-benzyl-7-(cyclopentylmethyl)-N-(3-methoxyphenethyl)-6-methyl-1,5,8,11-tetraoxo-9-(((R)-tetrahydro-2H-pyran-2-yl)methyl)-1,2,3,4,5,6,7,8,9,10,11,12,13,14-tetradecahydronaphtho[1,2-p][1]oxa[4,7,10,14]tetraazacycloheptadecine-3-carboxamide] | – | – | Emax (in relation to the Emax of the corrector lumacaftor (=100%), U2OS cell line, 16h compound incubation, arithmetic mean values): 174%
COc1nccc2c1C(=O)N[C@H](C(=O)NCCc1cc(C)no1)CC(=O)N(C)[C@@H](CC(C)C)C(=O)N1CCN(c3ccccc3)C[C@@H]1C(=O)N[C@H](Cc1ccccc1)CO2 [Example 542, (7S,11S,20R,22aR)-20-benzyl-7-isobutyl-14-methoxy-8-methyl-N-(2-(3-methylisoxazol-5-yl)ethyl)-6,9,13,22-tetraoxo-2-phenyl-1,3,4,6,7,8,9,10,11,12,13,19,20,21,22,22a-hexadecahydro-2H-pyrazino[2,1-f]pyrido[3,4-p][1]oxa[4,7,10,14]tetraazacycloheptadecine-11-carboxamide] | 368 | 334 | –
COc1cccc(CCNC(=O)[C@@H]2CC(=O)N(C)[C@@H](CC(C)C)C(=O)N3CCc4ccccc4[C@H]3C(=O)N[C@H](Cc3ccccc3)COc3ccnc(OC)c3C(=O)N2)c1 (mixture of isomers) [Example 569, (7S,11S,19bRS,22R)-22-benzyl-11-isobutyl-4-methoxy-N-(3-methoxyphenethyl)-10-methyl-5,9,12,20-tetraoxo-5,6,7,8,9,10,11,12,15,19b,20,21,22,23-tetradecahydro-14H-pyrido[3′,4′:16,17][1]oxa[4,7,10,14]tetraazacycloheptadecino[6,7-a]isoquinoline-7-carboxamide] | 108 | 270 | –
CC(C)C[C@H]1C(=O)N2CCCC[C@@H]2C(=O)N[C@H](Cc2ccccc2)COc2cnc3ccccc3c2C(=O)N[C@H](C(=O)NCCc2nc(C3CC3)no2)CC(=O)N1C [Example 127, (9S,13S,19aR,22R)-22-benzyl-N-(2-(3-cyclopropyl-1,2,4-oxadiazol-5-yl)ethyl)-13-isobutyl-12-methyl-7,11,14,20-tetraoxo-7,8,9,10,11,12,13,14,17,18,19,19a,20,21,22,23-hexadecahydro-16H-pyrido[2′,1′:6,7][1]oxa[4,7,10,14]tetraazacycloheptadecino[17,16-c]quinoline-9-carboxamide] | – | – | EC50 [5]: 107 nM; Emax [6]: 311%
[2H]C([2H])([2H])Oc1nc(C)cc2c1C(=O)N[C@H](C(=O)NCCc1cc(OC)no1)CC(=O)N(C)[C@@H](CC(C)C)C(=O)N1CCCC[C@@H]1C(=O)N[C@H](Cc1ccccc1)CO2 [Example 581, (7S,11S,17aR,20R)-20-benzyl-11-isobutyl-4-(methoxy-d3)-N-(2-(3-methoxyisoxazol-5-yl)ethyl)-2,10-dimethyl-5,9,12,18-tetraoxo-5,6,7,8,9,10,11,12,15,16,17,17a,18,19,20,21-hexadecahydro-14H-dipyrido[2,1-f:3′,4′-p][1]oxa[4,7,10,14]tetraazacycloheptadecine-7-carboxamide] | 300 | 303 | –
CC(C)C[C@H]1C(=O)N(CCC2CCCCC2)CC(=O)N[C@H](Cc2ccccc2)COc2ccncc2C(=O)N[C@H](C(=O)NCCc2ccc3c(c2)OCO3)CC(=O)N1C [Example 589, (3R,9S,13S)-N-(2-(benzo[d][1,3]dioxol-5-yl)ethyl)-3-benzyl-7-(2-cyclohexylethyl)-9-isobutyl-10-methyl-5,8,11,15-tetraoxo-2,3,4,5,6,7,8,9,10,11,12,13,14,15-tetradecahydropyrido[3,4-p][1]oxa[4,7,10,14]tetraazacycloheptadecine-13-carboxamide] | 298 | 160 | –
Cc1cc(CCNC(=O)[C@@H]2CC(=O)N(C)[C@@H](CC(C)C)C(=O)N3CCCC[C@H]3C(=O)N[C@H](Cc3ccccc3)COc3cnc4ccc(Cl)cc4c3C(=O)N2)on1 [Example 527, (9S,13S,19aR,22R)-22-benzyl-5-chloro-13-isobutyl-12-methyl-N-(2-(3-methylisoxazol-5-yl)ethyl)-7,11,14,20-tetraoxo-7,8,9,10,11,12,13,14,17,18,19,19a,20,21,22,23-hexadecahydro-16H-pyrido[2′,11:6,7][1]oxa[4,7,10,14]tetraazacycloheptadecino[17,16-c]quinoline-9-carboxamide] | 151 | 318 | –
Cc1cc2ccc3c(c2o1)C(=O)N[C@H](C(=O)NCCc1nc(C2CC2)no1)CC(=O)N(C)[C@@H](CC(C)C)C(=O)N(C)CC(=O)N[C@H](Cc1ccccc1)CO3 [Example 562, (8R,14S,18S)-8-benzyl-N-(2-(3-cyclopropyl-1,2,4-oxadiazol-5-yl)ethyl)-14-isobutyl-2,12,15-trimethyl-10,13,16,20-tetraoxo-7,8,9,10,11,12,13,14,15,16,17,18,19,20-tetradecahydrobenzofuro[7,6-p][1]oxa[4,7,10,14]tetraazacycloheptadecine-18-carboxamide] | 444 | 282 | –
COc1cccc(CCNC(=O)[C@@H]2CC(=O)N(C)[C@@H](CC3CCCC3)C(=O)N(CC[C@H]3CCCCO3)CC(=O)N[C@H](Cc3ccccc3)COc3ccc4ccccc4c3C(=O)N2)c1 (racemic) [Example 298, (3RS,7S,13R)-13-benzyl-7-(cyclopentylmethyl)-N-(3-methoxyphenethyl)-6-methyl-1,5,8,11-tetraoxo-9-(2-((SR)-tetrahydro-2H-pyran-2-yl)ethyl)-1,2,3,4,5,6,7,8,9,10,11,12,13,14-tetradecahydronaphtho[1,2-p][1]oxa[4,7,10,14]tetraazacycloheptadecine-3-carboxamide] | – | – | EC50 [5]: 220 nM; Emax [6]: 186%
